The values that follow come from PMC7687128, “Extracellular loops matter – subcellular location and function of the lysine transporter Lyp1 from Saccharomyces cerevisiae” (The Febs Journal, 2020).

Data set [1] addresses T1, Lyp1 (Lyp1-YPet) (Saccharomyces cerevisiae, UniProt P32487, I280A/G281A/F282A).
T1 construct: full-length, YPet fluorescent protein fusion, plasmid-expressed in S. cerevisiae, assayed in whole cells
T1 sequence (P32487 1-611 I280A/G281A/F282A): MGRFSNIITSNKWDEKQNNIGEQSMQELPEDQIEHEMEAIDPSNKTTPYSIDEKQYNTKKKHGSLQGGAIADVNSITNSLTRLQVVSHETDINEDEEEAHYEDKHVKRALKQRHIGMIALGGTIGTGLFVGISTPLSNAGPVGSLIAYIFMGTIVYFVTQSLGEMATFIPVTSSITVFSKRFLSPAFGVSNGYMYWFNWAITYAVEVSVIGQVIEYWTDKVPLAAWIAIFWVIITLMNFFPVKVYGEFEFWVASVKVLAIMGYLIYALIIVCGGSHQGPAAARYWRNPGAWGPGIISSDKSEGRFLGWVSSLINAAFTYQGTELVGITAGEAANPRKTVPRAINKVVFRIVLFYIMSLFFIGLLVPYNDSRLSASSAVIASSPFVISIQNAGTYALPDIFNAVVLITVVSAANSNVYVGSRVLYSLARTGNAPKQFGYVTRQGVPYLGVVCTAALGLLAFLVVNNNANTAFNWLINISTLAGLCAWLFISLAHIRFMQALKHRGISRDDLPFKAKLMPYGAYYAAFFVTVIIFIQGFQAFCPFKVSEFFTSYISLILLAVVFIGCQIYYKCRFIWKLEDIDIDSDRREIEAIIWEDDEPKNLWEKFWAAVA
The data set can be described thus: initial rate of […]-lysine uptake in S. cerevisiae cells. Format: cell-based. The note with it: out-to-in transport; 100 mM potassium phosphate, 10 mM glucose, pH 6.0, 30 °C; labelled compound.

Data set [2] has as its target T2, Lyp1 (Lyp1-YPet) (Saccharomyces cerevisiae, UniProt P32487, G289A/W291A).
T2 construct: full-length, YPet fluorescent protein fusion, plasmid-expressed in S. cerevisiae, assayed in whole cells
T2 sequence (P32487 1-611 G289A/W291A): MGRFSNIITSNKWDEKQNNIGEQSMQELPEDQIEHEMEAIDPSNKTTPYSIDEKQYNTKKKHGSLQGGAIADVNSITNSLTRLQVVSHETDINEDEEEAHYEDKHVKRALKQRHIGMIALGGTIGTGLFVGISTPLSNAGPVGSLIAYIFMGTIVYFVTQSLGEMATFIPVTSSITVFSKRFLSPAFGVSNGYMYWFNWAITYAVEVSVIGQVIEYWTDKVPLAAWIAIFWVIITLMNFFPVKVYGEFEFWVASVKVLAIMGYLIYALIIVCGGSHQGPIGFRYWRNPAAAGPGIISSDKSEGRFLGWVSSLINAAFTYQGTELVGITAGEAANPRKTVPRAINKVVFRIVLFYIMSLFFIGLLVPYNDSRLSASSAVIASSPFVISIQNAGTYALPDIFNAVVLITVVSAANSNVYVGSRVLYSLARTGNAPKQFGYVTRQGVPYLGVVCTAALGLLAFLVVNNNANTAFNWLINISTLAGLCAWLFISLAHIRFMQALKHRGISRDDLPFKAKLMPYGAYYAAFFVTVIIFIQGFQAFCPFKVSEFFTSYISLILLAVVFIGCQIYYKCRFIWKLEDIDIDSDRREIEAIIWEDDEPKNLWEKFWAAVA
Described as above. Format: cell-based. The following applies: out-to-in transport; 100 mM potassium phosphate, 10 mM glucose, pH 6.0, 30 °C; labelled compound.

Data set [3] addresses T3, Lyp1 (Lyp1-YPet) (Saccharomyces cerevisiae, UniProt P32487).
T3 construct: full-length, YPet fluorescent protein fusion, plasmid-expressed in S. cerevisiae, assayed in whole cells
T3 sequence (P32487 1-611): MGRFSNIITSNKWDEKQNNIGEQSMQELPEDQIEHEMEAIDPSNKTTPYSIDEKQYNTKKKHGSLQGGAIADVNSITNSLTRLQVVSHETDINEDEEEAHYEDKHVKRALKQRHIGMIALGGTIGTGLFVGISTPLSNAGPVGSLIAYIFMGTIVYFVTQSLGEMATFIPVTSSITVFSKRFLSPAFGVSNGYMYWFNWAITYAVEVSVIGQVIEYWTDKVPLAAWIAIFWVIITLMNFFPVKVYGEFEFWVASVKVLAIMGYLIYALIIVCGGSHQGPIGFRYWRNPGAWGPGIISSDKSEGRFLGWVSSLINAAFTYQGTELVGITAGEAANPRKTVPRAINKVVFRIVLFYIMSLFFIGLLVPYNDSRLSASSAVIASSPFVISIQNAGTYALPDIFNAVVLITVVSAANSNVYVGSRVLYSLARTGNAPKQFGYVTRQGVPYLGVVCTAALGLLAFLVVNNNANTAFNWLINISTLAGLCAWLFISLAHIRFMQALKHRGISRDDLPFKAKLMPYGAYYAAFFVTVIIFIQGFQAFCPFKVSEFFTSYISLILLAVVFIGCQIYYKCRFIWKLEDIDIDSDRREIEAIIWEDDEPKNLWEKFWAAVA
The data set is described as follows: competition with […]-lysine uptake in S. cerevisiae cells. The data set is classed as cell-based. The note with it: 20 µM [14C]-lysine, 100 mM potassium phosphate, 10 mM glucose, pH 6.0, 30 °C; competitor.

Substrate in data set [4]: NCCCC[C@H](N)C(=O)O
The data set can be described thus: cells, lysate or membranes. The data set is classed as cell-based, Saccharomyces cerevisiae. The note with it: out-to-in transport, 100 mM potassium phosphate, 10 mM glucose, pH 6.0, 30 °C, labelled compound.

For `NCCCC[C@H](N)C(=O)O` [L-lysine], the Km at Lyp1 (Lyp1-YPet) [1] and on Lyp1 (Lyp1-YPet) [2] was over 100 µM in each case. For `C[C@H](N)C(=O)O` [alanine], the “% reduction of lysine transport at 100 mM” value at Lyp1 (Lyp1-YPet) [3] was over 80%.

In the case of `N=C(N)NCCC[C@H](N)C(=O)O` [arginine], at Lyp1 (Lyp1-YPet) [3], the “% reduction of lysine transport at 100 mM” value is listed as over 80%. Same read-out and setting: under `N[C@@H](Cc1cnc[nH]1)C(=O)O` [histidine] stands over 80%.

B1: Lyp1 (Lyp1-YPet) (Saccharomyces cerevisiae S288C) (protein)
chain: MGRFSNIITSNKWDEKQNNIGEQSMQELPEDQIEHEMEAIDPSNKTTPYSIDEKQYNTKKKHGSLQGGAIADVNSITNSLTRLQVVSHETDINEDEEEAHYEDKHVKRALKQRHIGMIALGGTIGTGLFVGISTPLSNAGPVGSLIAYIFMGTIVYFVTQSLGEMATFIPVTSSITVFSKRFLSPAFGVSNGYMYWFNWAITYAVEVSVIGQVIEYWTDKVPLAAWIAIFWVIITLMNFFPVKVYGEFEFWVASVKVLAIMGYLIYALIIVCGGSHQGPIGFRYWRNPGAWGPGIISSDKSEGRFLGWVSSLINAAFTYQGTELVGITAGEAANPRKTVPRAINKVVFRIVLFYIMSLFFIGLLVPYNDSRLSASSAVIASSPFVISIQNAGTYALPDIFNAVVLITVVSAANSNVYVGSRVLYSLARTGNAPKQFGYVTRQGVPYLGVVCTAALGLLAFLVVNNNANTAFNWLINISTLAGLCAWLFISLAHIRFMQALKHRGISRDDLPFKAKLMPYGAYYAAFFVTVIIFIQGFQAFCPFKVSEFFTSYISLILLAVVFIGCQIYYKCRFIWKLEDIDIDSDRREIEAIIWEDDEPKNLWEKFWAAVA
notes: full-length, YPet fluorescent protein fusion, plasmid-expressed in S. cerevisiae, assayed in whole cells
Regarding B1, in data set [4], the Km (commonly the substrate concentration at which the rate is half of its maximum) turned out to be 10 µM.

B2: Lyp1 (Lyp1-YPet) (Saccharomyces cerevisiae S288C; F471A/T469A) (protein)
chain: MGRFSNIITSNKWDEKQNNIGEQSMQELPEDQIEHEMEAIDPSNKTTPYSIDEKQYNTKKKHGSLQGGAIADVNSITNSLTRLQVVSHETDINEDEEEAHYEDKHVKRALKQRHIGMIALGGTIGTGLFVGISTPLSNAGPVGSLIAYIFMGTIVYFVTQSLGEMATFIPVTSSITVFSKRFLSPAFGVSNGYMYWFNWAITYAVEVSVIGQVIEYWTDKVPLAAWIAIFWVIITLMNFFPVKVYGEFEFWVASVKVLAIMGYLIYALIIVCGGSHQGPIGFRYWRNPGAWGPGIISSDKSEGRFLGWVSSLINAAFTYQGTELVGITAGEAANPRKTVPRAINKVVFRIVLFYIMSLFFIGLLVPYNDSRLSASSAVIASSPFVISIQNAGTYALPDIFNAVVLITVVSAANSNVYVGSRVLYSLARTGNAPKQFGYVTRQGVPYLGVVCTAALGLLAFLVVNNNANAAANWLINISTLAGLCAWLFISLAHIRFMQALKHRGISRDDLPFKAKLMPYGAYYAAFFVTVIIFIQGFQAFCPFKVSEFFTSYISLILLAVVFIGCQIYYKCRFIWKLEDIDIDSDRREIEAIIWEDDEPKNLWEKFWAAVA
notes: as for B1
For the molecule B2, the Km in data set [4] was found to be 25 ± 21 µM.

B3: Lyp1 (Lyp1-YPet) (Saccharomyces cerevisiae S288C; G292A/G294A/P293A) (protein)
chain: MGRFSNIITSNKWDEKQNNIGEQSMQELPEDQIEHEMEAIDPSNKTTPYSIDEKQYNTKKKHGSLQGGAIADVNSITNSLTRLQVVSHETDINEDEEEAHYEDKHVKRALKQRHIGMIALGGTIGTGLFVGISTPLSNAGPVGSLIAYIFMGTIVYFVTQSLGEMATFIPVTSSITVFSKRFLSPAFGVSNGYMYWFNWAITYAVEVSVIGQVIEYWTDKVPLAAWIAIFWVIITLMNFFPVKVYGEFEFWVASVKVLAIMGYLIYALIIVCGGSHQGPIGFRYWRNPGAWAAAIISSDKSEGRFLGWVSSLINAAFTYQGTELVGITAGEAANPRKTVPRAINKVVFRIVLFYIMSLFFIGLLVPYNDSRLSASSAVIASSPFVISIQNAGTYALPDIFNAVVLITVVSAANSNVYVGSRVLYSLARTGNAPKQFGYVTRQGVPYLGVVCTAALGLLAFLVVNNNANTAFNWLINISTLAGLCAWLFISLAHIRFMQALKHRGISRDDLPFKAKLMPYGAYYAAFFVTVIIFIQGFQAFCPFKVSEFFTSYISLILLAVVFIGCQIYYKCRFIWKLEDIDIDSDRREIEAIIWEDDEPKNLWEKFWAAVA
notes: as for B1
As to B3, the Km in data set [4] was 63 ± 83 µM.

B4: Lyp1 (Lyp1-YPet) (Saccharomyces cerevisiae S288C; E215A/W217A/Y216A) (protein)
chain: MGRFSNIITSNKWDEKQNNIGEQSMQELPEDQIEHEMEAIDPSNKTTPYSIDEKQYNTKKKHGSLQGGAIADVNSITNSLTRLQVVSHETDINEDEEEAHYEDKHVKRALKQRHIGMIALGGTIGTGLFVGISTPLSNAGPVGSLIAYIFMGTIVYFVTQSLGEMATFIPVTSSITVFSKRFLSPAFGVSNGYMYWFNWAITYAVEVSVIGQVIAAATDKVPLAAWIAIFWVIITLMNFFPVKVYGEFEFWVASVKVLAIMGYLIYALIIVCGGSHQGPIGFRYWRNPGAWGPGIISSDKSEGRFLGWVSSLINAAFTYQGTELVGITAGEAANPRKTVPRAINKVVFRIVLFYIMSLFFIGLLVPYNDSRLSASSAVIASSPFVISIQNAGTYALPDIFNAVVLITVVSAANSNVYVGSRVLYSLARTGNAPKQFGYVTRQGVPYLGVVCTAALGLLAFLVVNNNANTAFNWLINISTLAGLCAWLFISLAHIRFMQALKHRGISRDDLPFKAKLMPYGAYYAAFFVTVIIFIQGFQAFCPFKVSEFFTSYISLILLAVVFIGCQIYYKCRFIWKLEDIDIDSDRREIEAIIWEDDEPKNLWEKFWAAVA
notes: as for B1
As to B4, the Km in data set [4] came to 34 ± 17 µM.

B5: Lyp1 (Lyp1-YPet) (Saccharomyces cerevisiae S288C; N390A/Q389A) (protein)
chain: MGRFSNIITSNKWDEKQNNIGEQSMQELPEDQIEHEMEAIDPSNKTTPYSIDEKQYNTKKKHGSLQGGAIADVNSITNSLTRLQVVSHETDINEDEEEAHYEDKHVKRALKQRHIGMIALGGTIGTGLFVGISTPLSNAGPVGSLIAYIFMGTIVYFVTQSLGEMATFIPVTSSITVFSKRFLSPAFGVSNGYMYWFNWAITYAVEVSVIGQVIEYWTDKVPLAAWIAIFWVIITLMNFFPVKVYGEFEFWVASVKVLAIMGYLIYALIIVCGGSHQGPIGFRYWRNPGAWGPGIISSDKSEGRFLGWVSSLINAAFTYQGTELVGITAGEAANPRKTVPRAINKVVFRIVLFYIMSLFFIGLLVPYNDSRLSASSAVIASSPFVISIAAAGTYALPDIFNAVVLITVVSAANSNVYVGSRVLYSLARTGNAPKQFGYVTRQGVPYLGVVCTAALGLLAFLVVNNNANTAFNWLINISTLAGLCAWLFISLAHIRFMQALKHRGISRDDLPFKAKLMPYGAYYAAFFVTVIIFIQGFQAFCPFKVSEFFTSYISLILLAVVFIGCQIYYKCRFIWKLEDIDIDSDRREIEAIIWEDDEPKNLWEKFWAAVA
notes: as for B1
B5: in data set [4], the Km is given as 7.4 ± 1.0 µM.
